In patent US20250127778A1, “CANCER IMMUNOTHERAPY COMPOSITION CONTAINING INTERACTION INHIBITOR OF STING AND TRIM29 AS ACTIVE INGREDIENT” (SPARK BIOPHARMA, INC, priority 2021, published 2025):

How the values were obtained:
[1] = system: TRIM29-mediated Lys48 polymerized multi-ubiquitination of STING; experiment: ELISA detection of STING Lys48 polymerized multi-ubiquitination in HEK293T cells; type: cell-based, human; conditions: with MG132, three hours, FIG. 8
Procedure: It was confirmed whether the oxopiperazine derivatives of Formulas 1 to 6 increased the intracellular amount by preventing the degradation of STING through TRIM29-mediated Lys48 polymerized multi-ubiquitination (K48 linkage-specific polyubiquitination).
Specifically, HEK293T cells were seeded in a transparent 6-well plate and cultured for one day. […] At this time, only the effect of the compound was quantitatively detected in a manner of using an analysis value of the sample that was not treated with MG132, a proteasome inhibitor that prevents the removal of ubiquitinated proteins, as a control group and subtracting the analysis value from an analysis value of the sample that was treated with MG132. […] The protein concentration of the supernatant was measured by using Bradford assay reagent. […] To confirm the quantitative concentration, a 5× SDS-PAGE loading buffer (Biosesang) was added at the ratio of the manufacturer to a portion of the sample, and then the resultant was treated at 95° C. for five minutes and analyzed by using the western blotting method described above. […]

STING mRNA = experiment: qRT-PCR of STING mRNA in Raw264.7 cells; type: cell-based, mouse; conditions: FIG. 17
STING = STING (Homo sapiens, UniProt Q86WV6); experiment: CETSA and ITDRF in A431 cells, STING; type: binding; parameters: endogenous in cells; host or cells: A431
Chain of STING (Q86WV6 whole entry H232R): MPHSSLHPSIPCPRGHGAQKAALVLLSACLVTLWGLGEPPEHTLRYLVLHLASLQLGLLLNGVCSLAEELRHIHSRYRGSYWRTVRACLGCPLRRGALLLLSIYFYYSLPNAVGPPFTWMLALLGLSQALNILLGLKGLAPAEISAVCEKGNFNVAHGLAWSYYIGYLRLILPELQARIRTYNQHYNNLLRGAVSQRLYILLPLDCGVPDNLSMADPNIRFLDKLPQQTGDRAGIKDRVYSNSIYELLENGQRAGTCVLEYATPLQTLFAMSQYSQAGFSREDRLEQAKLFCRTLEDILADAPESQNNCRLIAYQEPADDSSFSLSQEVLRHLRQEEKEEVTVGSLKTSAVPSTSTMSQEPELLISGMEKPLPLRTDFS
From the text: It was verified whether the oxopiperazine derivative of the present invention was bound to STING among STING and TRIM29 to inhibit interaction thereof, based on the compound of Formula 1, by the cellular thermal shift assay (CETSA) and the isothermal dose response fingerprint (ITDRF) which were major technologies for verifying the interaction between small molecule compounds and target proteins. (D. M. Molinaetal., Science 2013, 341, 84-87.)
To verify the target of the compound of Formula 1 using the CETSA technique, the human A431 cell lines and mouse Raw264.7 cell lines were seeded on a 100-mm or 150-mm culture dish and cultured for one day. […] Afterwards, centrifugation was performed at 20000 g for 20 minutes at 4° C., the supernatant was transferred to a new container, and each concentration was measured by using the Micro BCA™ protein assay kit (ThermoFisher) according to the protocol of the manufacturer. The concentration of each sample was equally adjusted by using the RIPA lysis buffer, the 5× SDS-PAGE loading buffer (Biosesang) was added according to the ratio of the manufacturer, and the resultant was treated at 95° C. for 5 minutes and analyzed by using the Western blotting method described above.

COc1ccc(CC2=CN(c3ccc(C(=O)NC[C@H]4CCCO4)cc3[N+](=O)[O-])[C@H](C(C)C)C(=O)N2Cc2ccc(O)cc2)cc1 [Formula 1, 4-((R)-4-(4-hydroxybenzyl)-2-isopropyl-5-(4-methoxybenzyl)-3-oxo-3,4-dihydropyrazin-1 (2H)-yl)-3-nitro-N-(((R)-tetrahydrofuran-2-yl)methyl)benzamide]
TRIM29-mediated lysine 48 polymerized multi-ubiquitination of STING [1]: inhibited | relation of STING increase to RNA transcription (STING mRNA) (STING mRNA): not related to RNA transcription | CETSA thermal stability of STING (STING; FIG. 11): induced thermal destabilization by selective binding only to STING | ITDRF thermal stability of STING (STING; FIG. 12): reduced the thermal stability of STING at high concentrations in a concentration-dependent manner
